Test results reported in paper PMC12040169 (PLOS Biology, 2025).

experiment: in vitro; settings: human, hela cells, % viability

Compound	viability at 28.5 h, 10 µM [%]
CCN1CC2(CCCN(Cc3cncn3C3CCCCC3)C2)CCC1=O (stereo not shown) [CBK307223]	98.1
CCn1cc(CN(Cc2cccnc2)Cc2ccccc2OC)cn1 [CBK307224]	84.2
O=C(N[C@@H]1COCC[C@@H]1OCC1CC1)c1cccc2c1NCCC2 [CBK307227]	102
Cc1ccc2nc(CNC(=O)CN(C)C3CCNCC3)cn2c1 [CBK307228]	96.6
CCCNC(=O)NC1CC(C)(C)Cc2nc(N3CCOCC3)ncc21 (stereo not shown) [CBK307232]	85.7
COc1ccccc1C(=O)Nc1sc2c(c1C#N)CC(C)(C)NC2(C)C [CBK307233]	99.9
Cc1ccc(F)cc1C(=O)NCC1CCN(c2cnn(C)c(=O)c2)C1 (stereo not shown) [CBK307235]	92.2
COc1ccc(Cl)cc1CN(C)C(=O)c1cnn2cc(CCO)cnc12 [CBK307236]	97.7
O=C(c1nc2ccccn2c1CN1CCCC(O)C1)N1CCOCC1 (stereo not shown) [CBK307237]	88.4
Cc1cc(=O)cc(C(=O)NC2CCN(c3ncccc3C#N)CC2)o1 [CBK307240]	86.2
CCOc1ccc(-c2ccnc(N3CCC(N(C)C)C3)n2)cc1C(=O)O (stereo not shown) [CBK307241]	95
Cc1nc(N2CCCCC2)ncc1C(=O)NCc1nonc1C [CBK307243]	87.7
CCOC(=O)c1cn(CCSCC)cc(Oc2ccccc2)c1=O [CBK307244]	115
CCCc1nc(C(=O)N2Cc3cnn(Cc4ccc(F)cc4)c3C2)cs1 [CBK307249]	86
CCN1CC2(CCC1=O)CCN(Cc1cccc(C(C)N(C)C)c1)CC2 (stereo not shown) [CBK307250]	116
COc1nc2ccn(CC(O)CO)c(=O)c2cc1C#N (stereo not shown) [CBK307251]	97.1
CCCn1nccc1S(=O)(=O)NCCN1CCCCC1CO (stereo not shown) [CBK307259]	82
Cc1cc(C(F)(F)F)nn1CCNC(=O)c1cn2ccsc2n1 [CBK307260]	112
CCOc1ccc(NC(=O)NC(CC)c2cnn(C)c2)cc1Cl (stereo not shown) [CBK307262]	107
CCCS(=O)(=O)NC1CC(C)(C)Cc2c1cnn2-c1ccccc1 (stereo not shown) [CBK307265]	98.1
CN(c1ncccc1CNC(=O)c1c[nH]c(=O)c(Cl)c1)C1CCCCC1 [CBK307267]	92.6
Cc1cc(CC(=O)NCCCn2ccnc2C(C)C)on1 [CBK307270]	99.7
CN(C)CCn1ccnc1C1CCCN(C(=O)Cc2cccc(Cl)c2)C1 (stereo not shown) [CBK307272]	92.3

Compound	viability at 28.5 h, 10 µM [%]
N#Cc1cccnc1N1CCC(NC(=O)Cn2cccnc2=O)CC1 [CBK307275]	95.7
Cc1cc(C)n2nc(CC(=O)NCCCn3cc(Cl)cn3)nc2n1 [CBK307276]	84.3
COc1cc2c(cc1CN1CCOCC1CC(=O)O)CCC2 (stereo not shown) [CBK307277]	102
O=C(NCCCn1cc(Cl)cn1)N1CCCN(Cc2cccs2)CC1 [CBK307279]	105
CCn1c(C2CCN(C(=O)c3ccc(C)c(Cl)c3)CC2)nn(C)c1=O [CBK307280]	95.9
COc1ccc(Cc2nc(CCNC(C)=O)n(CC(F)(F)F)n2)cc1 [CBK307287]	77.8
Cc1cc(-c2cn3cc(C(=O)NCCO)nc3c(=O)n2C)c(C)o1 [CBK307288]	89.4
COCCn1c(CN2Cc3ccc(Cl)cc3C2=O)nnc1[C@H]1C[C@@H](N)C1 [CBK307289]	102
OC(c1cccs1)C1CCN(Cc2cnn(-c3ccccc3)c2)CC1 (stereo not shown) [CBK307290]	105
Cc1csc2c(N3CCC(NCCCc4cnn(C)c4)CC3)ncnc12 [CBK307291]	98.2
Cn1cc(CCC(=O)NC(Cc2ccncc2)[C@H]2C[C@H](O)C2)cn1 (stereo partly shown) [CBK307292]	82.4
Cc1nc2c(c(N(C)C)n1)CCN(C(=O)C(C)n1cc(Cl)cn1)C2 (stereo not shown) [CBK307293]	110
Cc1nc2cc(OCc3nc(C(=O)NC4CCNC4=O)co3)ccc2s1 (stereo not shown) [CBK307298]	91.8
COc1cccc2ncn(CCc3n[nH]c(N)n3)c(=O)c12 [CBK307301]	90.8
COc1ccc2[nH]c(C(=O)N3CCn4nc(CO)cc4C3)c(C)c2c1 [CBK307302]	106
COc1ccnc(C(=O)N(Cc2ccccn2)CC2CCCO2)c1 (stereo not shown) [CBK307303]	94.1
CCOc1ccccc1CN(C)c1cc(C2CC(N)C2)nc(N)n1 (stereo not shown) [CBK307308]	82.4
CCCc1nc(NC(CCO)c2ccc(C)cc2)c2cnn(C)c2n1 (stereo not shown) [CBK307309]	85.3
COCC(=O)NCC1Cc2cc(F)cc(-c3ccc(C(C)=O)s3)c2O1 (stereo not shown) [CBK307310]	98.4
CCCS(=O)(=O)NC(C)c1cnn(-c2ccc(OC)cc2)c1C (stereo not shown) [CBK307319]	115
Cc1c(-c2ccc(N(C)C)nc2)c(C(F)(F)F)nn1C [CBK307320]	83.5
O=C(NCCc1c[nH]cn1)N1CCCN(Cc2ccc(F)cc2)CC1 [CBK307323]	111
Cc1ccc(C(=O)N(C)Cc2cc(-c3ccncc3)no2)c(=O)n1C [CBK307324]	83.7

Compound	viability at 28.5 h, 10 µM [%]
Cc1cc(-c2cn3cc(C(=O)N4CCNCC4)nc3c(=O)n2C)c(C)o1 [CBK307325]	108
CCn1c(C2CCN(C(=O)CCCn3cncn3)CC2)nn(C)c1=O [CBK307326]	92.4
Cn1c(N2CC[C@H](O)C2)nc2cc(C(=O)NCCn3cccn3)ccc21 [CBK307328]	111
CCn1ncc(CN(C)C(=O)CCC2CCCCN2C)c1C (stereo not shown) [CBK307329]	116
CCN(C(=O)c1cn2c3c(cccc3c1=O)CC2)C1CCOC(C)(C)C1 (stereo not shown) [CBK307332]	90.1
Cc1cc(C)c(C)c(S(=O)(=O)NCCN2CCCCC2CO)c1C (stereo not shown) [CBK307333]	90.4
Cc1nnnn1CC(=O)Nc1nn(C)c2cccc(N3CCOCC3)c12 [CBK307335]	97
COCc1nc(NCCCn2c(C)cccc2=O)cc([C@H]2C[C@H](N)C2)n1 [CBK307337]	103
CSc1ncc(C(=O)N2CCC(N3CCCC(CO)C3)CC2)c(=O)[nH]1 (stereo not shown) [CBK307338]	90.3
Cc1cccn2c(CN3CCCC(O)C3)c(C(=O)N3CCCCC3)nc12 (stereo not shown) [CBK307342]	94
COc1nc2ccn(CCC3CCOC3)c(=O)c2cc1C#N (stereo not shown) [CBK307343]	101
Cn1cc(CN(C(=O)c2nc(N)nc3c2CCCC3)C2CC2)cn1 [CBK307352]	90.1
Cc1nc(N)nc(NCCC2CCCOC2)c1Cl (stereo not shown) [CBK307353]	97.1
CCCSCC(=O)Nc1nn(C)c2cccc(N3CCOCC3)c12 [CBK307354]	105
CCOC(=O)N1CCN(Cc2ccc(OCC3CCCNC3)cc2)CC1 (stereo not shown) [CBK307355]	73.8
COc1cccc(CN2CCCC(NC(=O)NCc3cccs3)C2)c1 (stereo not shown) [CBK307357]	73.3
Cc1cccc(OCC2CCCN(C(=O)NCCc3cnn(C)c3)C2)c1 (stereo not shown) [CBK307358]	96.9
COCCN(Cc1cnn(C)c1)Cc1cc(O)c2cc(F)ccc2n1 [CBK307359]	103
CCCCN(Cc1ccc(C)s1)C(=O)C1CCc2nn(C)c(=O)n2C1 (stereo not shown) [CBK307360]	94.6
COc1ccc(OCCCN)c(C(=O)N2CCc3nc[nH]c(=O)c3C2)c1 [CBK307361]	97.2
Cn1ncc2c(NCCCC3CCOC3)nc(C(C)(C)C)nc21 (stereo not shown) [CBK307363]	113
Cc1cccc(=O)n1CCCn1cc(C2CCOC2)nn1 (stereo not shown) [CBK307368]	100
CC1(C)Cc2nc(N3CCOCC3)ncc2C(NC(=O)c2cccs2)C1 (stereo not shown) [CBK307369]	92.7

Compound	viability at 28.5 h, 10 µM [%]
O=C(CSc1nc(-c2cccs2)cc(C(F)(F)F)n1)N1CCSCC1 [CBK307371]	107
CN1CCN(C(=O)CSc2nc(-c3cccs3)cc(C(F)(F)F)n2)CC1 [CBK307372]	92.3
N#CCCCN1C(=O)C(O)(CC(=O)c2ccccn2)c2ccccc21 (stereo not shown) [CBK307373]	121
CSC(C)CCN1CCn2nc(CNc3cnccn3)cc2C1 (stereo not shown) [CBK307376]	95.5
CCOCCn1nc(C)cc1C(=O)NC(CC)c1cn2cccnc2n1 (stereo not shown) [CBK307377]	79
COc1ccc(Cc2nc(C3CCC3)n(CC3COCCO3)n2)cc1 (stereo not shown) [CBK307378]	87.8
Cc1coc(C)c1C(=O)CC1(O)C(=O)N(CCCC#N)c2ccccc21 (stereo not shown) [CBK307383]	86
CC(=O)Nc1nnc(SCC(=O)N2CCN(c3ccc(Cl)cc3)CC2)s1 [CBK307384]	86.6
Cn1cnnc1SCCNC(=O)N1CCc2sccc2C1 [CBK307385]	97.3
COCCN(C(=O)c1[nH]c2c(F)cccc2c1C)C1CCN(C)CC1 [CBK307386]	95
COCc1cn(C2CCN(c3cc(-n4cc(C)cn4)ncn3)CC2)nn1 [CBK307388]	92.9
Cc1cnc2c(Cl)c(C(=O)NCC(F)(F)F)nn2c1 [CBK307391]	93.1
Nc1nc(C2CC(O)C2)cc(N2CCC(Oc3ccccc3Cl)CC2)n1 (stereo not shown) [CBK307392]	93.2
CN(Cc1nccn1C)c1nccc(N2CCN[C@H]3CS(=O)(=O)C[C@H]32)n1 [CBK307394]	84.8
CCCCn1nc(Cn2cncn2)nc1CC1NC(=O)c2ccccc21 (stereo not shown) [CBK307395]	108
OCC1(CNc2ncc(F)c(N3CCCC3)n2)CCCC1 [CBK307397]	103
CCC(=O)N1CCCCC(NS(=O)(=O)c2ccc(-n3cccn3)cc2)C1 (stereo not shown) [CBK307398]	82.5
Cc1cccc(=O)n1CCCn1cc(-c2ncc[nH]2)nn1 [CBK307401]	90.7
CC(=O)NCC1CCC2(CCN(c3nc(C)nc(C)c3C)CC2)O1 (stereo not shown) [CBK307404]	94.1
C1=C(CN2CCn3nc(CNc4cnccn4)cc3C2)CCCC1 [CBK307406]	86.1
CC1(C)Cc2nc(N3CCOCC3)ncc2C(NC(=O)c2cn[nH]c2)C1 (stereo not shown) [CBK307409]	106
COCCN1CCn2c(nc3cc(NC(=O)c4ccccc4)ccc32)C1 [CBK307410]	89.4
